From PubChem BioAssay (NCI)
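Five concentrations, 48 hours, 96-well plates. TGI denotes the concentration required for complete inhibition of growth.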

Assays:
Assay in all cases: NCI-60 cell line screen, 48 h
[1] = tested on: 786-0 renal
[2] = tested on: A498 renal
[3] = tested on: A549 NSCLC
[4] = tested on: BT-549 breast
[5] = tested on: CAKI-1 renal
[6] = tested on: CCRF-CEM leukemia
[7] = tested on: COLO 205 colon
[8] = tested on: DU-145 prostate
[9] = tested on: EKVX NSCLC
[10] = tested on: HCC-2998 colon
[11] = tested on: HCT-116 colon
[12] = tested on: HCT-15 colon
[13] = tested on: HL-60(TB) leukemia
[14] = tested on: HOP-62 NSCLC
[15] = tested on: HOP-92 NSCLC
[16] = tested on: HS 578T breast
[17] = tested on: HT29 colon
[18] = tested on: IGROV1 ovarian
[19] = tested on: K-562 leukemia
[20] = tested on: KM12 colon
[21] = tested on: LOX IMVI melanoma
[22] = tested on: MALME-3M melanoma
[23] = tested on: MCF7 breast
[24] = tested on: MDA-MB-231 breast
[25] = tested on: MDA-MB-435
[26] = tested on: MDA-N
[27] = tested on: MOLT-4 leukemia
[28] = tested on: NCI-H226 lung
[29] = tested on: NCI-H23 lung
[30] = tested on: NCI-H460 lung
[31] = tested on: NCI-H522 lung
[32] = tested on: NCI/ADR-RES ovarian
[33] = tested on: OVCAR-3 ovarian
[34] = tested on: OVCAR-4 ovarian
[35] = tested on: OVCAR-5 ovarian
[36] = tested on: OVCAR-8 ovarian
[37] = tested on: PC-3 prostate
[38] = tested on: RPMI-8226 leukemia
[39] = tested on: RXF 393 renal
[40] = tested on: SF-268 CNS
[41] = tested on: SF-295 CNS
[42] = tested on: SF-539 CNS
[43] = tested on: SK-MEL-28 melanoma
[44] = tested on: SK-MEL-5 melanoma
[45] = tested on: SN12C renal
[46] = tested on: SNB-19 CNS
[47] = tested on: SNB-75 CNS
[48] = tested on: SR leukemia
[49] = tested on: SW-620 colon
[50] = tested on: TK-10 renal
[51] = tested on: U251 CNS
[52] = tested on: UACC-257 melanoma
[53] = tested on: UO-31 renal

Measured: TGI

O=C(NCc1ccccc1Cl)c1c(O)c2ccccc2[nH]c1=O
30.4 µM: [2]
63.1 µM: [39]
67.2 µM: [18]
23.2 µM: [34]
58.7 µM: [15]
45.3 µM: [24]
41 µM: [14]
33.4 µM: [53]
52.2 µM: [47]
36.5 µM: [1]
40.7 µM: [51]
64.3 µM: [49]
96.6 µM: [5]
56.6 µM: [32]
> 100 µM: all other assays above
